The text below walks through data of patent US12503475B2 (Centessa Pharmaceuticals (UK) Limited, priority 2020, dated 2025).

This test concerns the target T1, human orexin type 2 receptor (hOX2R) (Homo sapiens, UniProt O43614).
T1 construct: expressed in transfected cells
T1 sequence (O43614 1-444): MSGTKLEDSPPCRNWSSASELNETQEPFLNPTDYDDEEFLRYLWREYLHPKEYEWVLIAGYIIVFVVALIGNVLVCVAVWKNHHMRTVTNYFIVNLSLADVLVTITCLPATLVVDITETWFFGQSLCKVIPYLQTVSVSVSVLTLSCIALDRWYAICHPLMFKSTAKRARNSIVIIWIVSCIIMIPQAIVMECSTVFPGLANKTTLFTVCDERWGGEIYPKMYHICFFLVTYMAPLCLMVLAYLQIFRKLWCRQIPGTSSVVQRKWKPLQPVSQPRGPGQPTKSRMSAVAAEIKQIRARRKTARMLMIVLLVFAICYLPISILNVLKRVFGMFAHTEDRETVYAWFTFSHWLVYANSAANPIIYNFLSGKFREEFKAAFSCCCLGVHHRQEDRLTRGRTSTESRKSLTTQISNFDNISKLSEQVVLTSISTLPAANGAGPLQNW
Briefly: Measurement of orexin type 2 receptor agonist activity (FLIPR calcium fluorescence). Particulars: CHO cells expressing hOX2R, FLIPR calcium fluorescence; for EC50: read-out: hOx2 pEC50 (converted); for Emax: CHO, read-out: hOx2 Emax (%). It is filed as cell-based. The essentials:
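Agonism was read as fluorescence in cells stably expressing human OX2R. E. is the response at 10 μM relative to orexin A as full agonist (100%).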

Turning to `COCCN(C)C(=O)N1CC2(CC2)[C@H](NS(C)(=O)=O)[C@@H]1Cc1cccc(-c2ccccc2)c1F` [Compound 326, (6S,7S)-6-((2-fluoro-[1,1′-biphenyl]-3-yl)methyl)-N-(2-methoxyethyl)-N-methyl-7-(methylsulfonamido)-5-azaspiro[2.4]heptane-5-carboxamide], the EC50 is 1 to 10 nM and the Emax (in general, the maximal effect, on the per cent scale that the assay sets) was in the range of 90 to 100%.
Consider `CN(CCC#N)C(=O)N1CC2(CC2)[C@H](NS(C)(=O)=O)[C@@H]1Cc1cccc(-c2ccccc2)c1F` [Compound 327, (6S,7S)-N-(2-cyanoethyl)-6-((2-fluoro-[1,1′-biphenyl]-3-yl)methyl)-N-methyl-7-(methylsulfonamido)-5-azaspiro[2.4]heptane-5-carboxamide], for which the EC50 was 1 to 10 nM and the maximal effect (Emax) lay in the range of 90 to 100%.
In the case of `COC[C@H](C)NC(=O)N1CC2(CC2)[C@H](NS(C)(=O)=O)[C@@H]1Cc1cccc(-c2ccccc2)c1F` [Compound 328, (6S,7S)-6-((2-fluoro-[1,1′-biphenyl]-3-yl)methyl)-N-((S)-1-methoxypropan-2-yl)-7-(methylsulfonamido)-5-azaspiro[2.4]heptane-5-carboxamide], the EC50 is 1 to 10 nM and the maximum response (Emax) fell in the range of 90 to 100%.
As to `CS(=O)(=O)N[C@@H]1[C@H](Cc2cccc(-c3ccccc3)c2F)N(C(=O)NC[C@@H]2CCOC2)CC12CC2` [Compound 329, (6S,7S)-6-((2-fluoro-[1,1′-biphenyl]-3-yl)methyl)-7-(methylsulfonamido)-N-(((S)-tetrahydrofuran-3-yl)methyl)-5-azaspiro[2.4]heptane-5-carboxamide], the EC50 is 1 to 10 nM and the Emax fell in the range of 90 to 100%.
The like results for `CS(=O)(=O)N[C@@H]1[C@H](Cc2cccc(-c3ccccc3)c2F)N(C(=O)NCCC#N)CC12CC2` [Compound 330, (6S,7S)-N-(2-cyanoethyl)-6-((2-fluoro-[1,1′-biphenyl]-3-yl)methyl)-7-(methylsulfonamido)-5-azaspiro[2.4]heptane-5-carboxamide] were, in that order, 1 to 10 nM and 90 to 100%.
Regarding `CS(=O)(=O)N[C@@H]1[C@H](Cc2cccc(-c3ccccc3)c2F)N(C(=O)NC[C@H]2CCO2)CC12CC2` [Compound 331, (6S,7S)-6-((2-fluoro-[1,1′-biphenyl]-3-yl)methyl)-7-(methylsulfonamido)-N-(((R)-oxetan-2-yl)methyl)-5-azaspiro[2.4]heptane-5-carboxamide], the EC50 is 1 to 10 nM and the Emax was in the range of 90 to 100%.
With `CN(CC1CC1)C(=O)N1CC2(CC2)[C@H](NS(C)(=O)=O)[C@@H]1Cc1cccc(-c2ccccc2)c1F` [Compound 332, (6S,7S)-N-(cyclopropylmethyl)-6-((2-fluoro-[1,1′-biphenyl]-3-yl)methyl)-N-methyl-7-(methylsulfonamido)-5-azaspiro[2.4]heptane-5-carboxamide], the EC50 is 1 to 10 nM and the Emax lay within 90 to 100%.
As for `CS(=O)(=O)N[C@@H]1[C@H](Cc2cccc(-c3ccccc3)c2F)N(C(=O)NC[C@@H]2CCO2)CC12CC2` [Compound 333, (6S,7S)-6-((2-fluoro-[1,1′-biphenyl]-3-yl)methyl)-7-(methylsulfonamido)-N-(((S)-oxetan-2-yl)methyl)-5-azaspiro[2.4]heptane-5-carboxamide], the EC50 is 1 to 10 nM and the Emax fell in the range of 90 to 100%.
In the case of `CS(=O)(=O)N[C@@H]1[C@H](Cc2cccc(-c3ccccc3)c2F)N(C(=O)NCC2COC2)CC12CC2` [Compound 334, (6S,7S)-6-((2-fluoro-[1,1′-biphenyl]-3-yl)methyl)-7-(methylsulfonamido)-N-(oxetan-3-ylmethyl)-5-azaspiro[2.4]heptane-5-carboxamide], the EC50 is 1 to 10 nM and the Emax was 90 to 100%.
`CS(=O)(=O)N[C@@H]1[C@H](Cc2cccc(-c3ccccc3)c2F)N(C(=O)NC[C@H]2CCOC2)CC12CC2` [Compound 335, (6S,7S)-6-((2-fluoro-[1,1′-biphenyl]-3-yl)methyl)-7-(methylsulfonamido)-N-(((R)-tetrahydrofuran-3-yl)methyl)-5-azaspiro[2.4]heptane-5-carboxamide]: the EC50 is 1 to 10 nM and the Emax lay within 90 to 100%.
The like results for `CO[C@@H](C)CNC(=O)N1CC2(CC2)[C@H](NS(C)(=O)=O)[C@@H]1Cc1cccc(-c2ccccc2)c1F` [Compound 336, (6S,7S)-6-((2-fluoro-[1,1′-biphenyl]-3-yl)methyl)-N-((S)-2-methoxypropyl)-7-(methylsulfonamido)-5-azaspiro[2.4]heptane-5-carboxamide] were, in that order, 1 to 10 nM and 90 to 100%.
With `C[C@@H](CF)NC(=O)N1CC2(CC2)[C@H](NS(C)(=O)=O)[C@@H]1Cc1cccc(-c2ccccc2)c1F` [Compound 337, (6S,7S)-6-((2-fluoro-[1,1′-biphenyl]-3-yl)methyl)-N-((S)-1-fluoropropan-2-yl)-7-(methylsulfonamido)-5-azaspiro[2.4]heptane-5-carboxamide], the EC50 was 1 to 10 nM and the Emax lay within 90 to 100%.
Consider `C[C@@H](C#N)S(=O)(=O)N[C@@H]1[C@H](Cc2cccc(-c3ccccc3)c2)N(C(=O)[C@H]2CCO2)CC12CC2` [Compound 338, (S)-N-((6S,7S)-6-([1,1′-biphenyl]-3-ylmethyl)-5-((R)-oxetane-2-carbonyl)-5-azaspiro[2.4]heptan-7-yl)-1-cyanoethane-1-sulfonamide], for which the EC50 is 10 to 100 nM and the Emax was in the range of 90 to 100%.
For the compound `COc1c(C[C@H]2[C@@H](NS(C)(=O)=O)C3(CC3)CN2C(=O)C2CC(F)C2)cccc1-c1ccccc1` (stereo partly drawn) [Compound 339, N-((6S,7S)-5-(3-fluorocyclobutane-1-carbonyl)-6-((2-methoxy-[1,1′-biphenyl]-3-yl)methyl)-5-azaspiro[2.4]heptan-7-yl)methanesulfonamide], the “hOx2 pEC50” value is “*** (pEC50 ranging between 7.0 and 8.0)”; the maximal effect (Emax) was in the range of 70 to 80%.
Take `COc1c(C[C@H]2[C@@H](NS(C)(=O)=O)C3(CC3)CN2C(=O)C2CC(F)C2)cccc1-c1ccccc1` (stereo partly drawn) [Compound 340, N-((6S,7S)-5-(3-fluorocyclobutane-1-carbonyl)-6-((2-methoxy-[1,1′-biphenyl]-3-yl)methyl)-5-azaspiro[2.4]heptan-7-yl)methanesulfonamide]: the “hOx2 Emax (%)” value is “D (Emax ranging between 60 and 70)”; the “hOx2 pEC50” value is “*** (pEC50 ranging between 7.0 and 8.0)”.
`CC(C#N)NC(=O)N1CC2(CC2)[C@H](NS(C)(=O)=O)[C@@H]1Cc1cccc(-c2ccccc2)c1F` (stereo partly drawn) [Compound 341, (6S,7S)-N-(1-cyanoethyl)-6-((2-fluoro-[1,1′-biphenyl]-3-yl)methyl)-7-(methylsulfonamido)-5-azaspiro[2.4]heptane-5-carboxamide]: the EC50 is 0.0794 to 1 nM and the maximal effect (Emax) lay within 90 to 100%.
For `CCCNC(=O)N1CC2(CC2)[C@H](NS(C)(=O)=O)[C@@H]1Cc1cccc(-c2ccccc2)c1OC` [Compound 342, (6S,7S)-6-((2-methoxy-[1,1′-biphenyl]-3-yl)methyl)-7-(methylsulfonamido)-N-propyl-5-azaspiro[2.4]heptane-5-carboxamide], the EC50 is 10 to 100 nM and the Emax is 70 to 80%.
Turning to `COc1c(C[C@H]2[C@@H](NS(C)(=O)=O)C3(CC3)CN2C(=O)NCC(F)(F)F)cccc1-c1ccccc1` [Compound 343, (6S,7S)-6-((2-methoxy-[1,1′-biphenyl]-3-yl)methyl)-7-(methylsulfonamido)-N-(2,2,2-trifluoroethyl)-5-azaspiro[2.4]heptane-5-carboxamide], the EC50 was 10 to 100 nM and the Emax lay within 70 to 80%.
For the compound `CCS(=O)(=O)N[C@@H]1[C@H](Cc2cccc(-c3ccccc3)c2F)N(C(=O)[C@H](O)COC)CC12CC2` [Compound 344, N-((6S,7S)-6-((2-fluoro-[1,1′-biphenyl]-3-yl)methyl)-5-((R)-2-hydroxy-3-methoxypropanoyl)-5-azaspiro[2.4]heptan-7-yl)ethanesulfonamide], the EC50 is 1 to 10 nM and the maximal effect (Emax) was in the range of 90 to 100%.
With `[2H]C([2H])([2H])N(C(=O)N1CC2(CC2)[C@H](NS(C)(=O)=O)[C@@H]1Cc1cccc(-c2ccccc2)c1F)C([2H])([2H])[2H]` [Compound 345, (6S,7S)-6-((2-fluoro-[1,1′-biphenyl]-3-yl)methyl)-N,N-bis(methyl-d3)-7-(methylsulfonamido)-5-azaspiro[2.4]heptane-5-carboxamide], the EC50 is 1 to 10 nM and the Emax lay in the range of 90 to 100%.
On to `C[C@H](F)C(=O)N1CC2(CC2)[C@H](NS(C)(=O)=O)[C@@H]1Cc1cccc(-c2ccccc2)c1F` [Compound 346, N-((6S,7S)-6-((2-fluoro-[1,1′-biphenyl]-3-yl)methyl)-5-((S)-2-fluoropropanoyl)-5-azaspiro[2.4]heptan-7-yl)methanesulfonamide], for which the EC50 is 1 to 10 nM and the Emax fell in the range of 90 to 100%.
For `CN(C)S(=O)(=O)N[C@@H]1[C@H](Cc2cc(F)cc(-c3ccccc3)c2F)N(C(=O)C2CCO2)CC12CC2` (stereo partly drawn) [Compound 347, N-((6S,7S)-6-((2,5-difluoro-[1,1′-biphenyl]-3-yl)methyl)-5-((R)-oxetane-2-carbonyl)-5-azaspiro[2.4]heptan-7-yl)-N,N-dimethylsulfuric diamide], the EC50 is 1 to 10 nM and the Emax is 90 to 100%.
